“Also recorded” adds a separate entry of the source.

This note sets out measurements from patent publication US20150086618A1, “PHOSPHOLIPID MICELLAR AND LIPOSOMAL COMPOSITIONS AND USES THEREOF” (THE BOARD OF TRUSTEES OF THE UNIVERSITY OF ILLINOIS, priority 2008, published 2015).

The nature of data set [1]: Dynamic light scattering (NICOMP) particle size of PxB, PxB with DSPE-PEG2000 and SSM in saline. The class given is physicochemical. Conditions: for particle size distribution with scale 10-10,000 nm: 6.9 mM PxB in saline, 2 hours, 25° C. Here is the method:
In order to determine the optimum peptide to lipid ratio of PxB to SSM, fluorescence spectroscopy and NICOMP analysis were carried out on PxB at varying concentrations in sterile normal saline (SNS) and with DSPE-PEG2000 at a fixed concentration. In these experiments, PxB Sulphate (MW […], Research Products International Corp, Cat: P40160-1.0, Lot#003746), DSPE-PEG2000 (MW 2811 g/mol, Lipoid, Cat#PE18:0/18:0/PEG 2000, Lot#899346-1/10), Methanol, and HEPES Buffer (pH˜7.4) were used. Controls: SSM (1 mM) and Samples: PxB-SSM (1:1000) were prepared.
Specifically, PxB (at various concentrations ranging from 0.5 mM to 6.9 mM) in sterile normal saline (SNS) was incubated with DSPE-PEG2000 (1 mM). Stock solutions of PxB and DSPE-PEG2000 were prepared and equilibrated for 2 hours. After the 2 hour equilibration, stock solutions were characterized by dynamic light scattering (DLS) using the NICOMP 380 Submicron Particle Sizer (Particle Sizing Systems, Inc. Santa Barbara, Calif.). […] A SSM sample (1 mM) (n=1) was prepared in saline alone for comparison with the PxB-SSM samples. Concurrent samples of PxB (0.5, 1.0, 2.3 and 6.9 mM) were prepared in saline alone or with SSM (DSPE-PEG2000, 1 mM) (n=8). The samples were measured for 30 minutes using DLS at approximately 2, 24, and 48 hours after time 0.

The nature of data set [2]: DSPE-PEG2000:PxB saturation ratio by fluorescence spectroscopy. It is filed as physicochemical. Conditions: at saturation point. Here is the method: To determine the saturation point for DSPE-PEG2000 with PxB, fluorescence spectroscopy was carried out. PxB concentration was fixed at 50 μM and the concentration of DSPE-PEG2000 was varied to allow DSPE-PEG2000:PxB ratios of 1:1, 3:1, 6:1, 10:1, 20:1, 60:1, and 100:1. A stock solution of DSPE-PEG2000 was prepared and allowed to equilibrate at 25° C. in the dark under argon gas for two hours. A stock solution of PxB (100 μM) was prepared in HEPES Buffer. Samples were prepared by pipetting the appropriate amount of buffer and stock solutions into each vial. Fluorescence measurements were made after allowing each sample to equilibrate for 1 hour in the dark at 25° C. 400 μl of each sample was measured three times by the spectrofluorometer. The maximum intensity of each sample was recorded from the spectrofluorometer and analyzed using Microsoft Excel and Sigma Plot.
To fit a curve to the graph of the data the equation was used because its shape best fit the data, where
When the lipid to peptide ratio approaches infinity, a plateau is reached in terms of the fluorescence intensity and the equation becomes where yp is the height of the plateau. […]
Using this value as y, the lipid to peptide saturation point can be calculated by substituting the values into the equation and solving for x, […]

Data set [3] in a line: Fluorescence anisotropy of GLP-1(7-36) in SSM / SSMM or saline. The class given is physicochemical. Conditions: GLP-1(7-36) 125 μM in saline; n=3. From the text:
Fluorescence anisotropy. […] The data indicated an increased viscosity of the peptide surrounding in the presence of SSM in contrast to saline.
This hypothesis was studied via determination of peptide fluorimetric anisotropy in the presence and absence of nanomicelles. This technique measures rigidity (or rotational freedom) of fluorophores by intensity of emitted fluorescence polarized parallel and perpendicular to that of excitation beam. A molecule that is restricted in its rotational motion due to viscous environment will emit fluorescence that is predominantly parallel to its excitation light source, giving a high anisotropy value.

A further data set has as its system ALI mice. Description: LPS-nebulization acute lung injury model, treatment after start of LPS (Example 7). The conditions noted are these: cardiac puncture at conclusion of treatment; LPS-exposed mice. The class given is in vivo. Here is the method:
Mice are induced with acute lung injury (ALI) by treatment with lipopolysaccharide (LPS) nebulization (as described by Sadikot et al. […]: 873-8, 2001; Koay et al., Am. J. Respir. Cell Mol. Biol. 26: 572-8, 2002). […]
A dose of drug was administered subcutaneously (s.c.) 30 min after initialization of aerosolized LPS nebulization. […] All mice were sacrificed 4 hr after completion of nebulization. For each animal, bronchoalveolar lavage was carried out and the lungs were removed for analysis. Data from untreated (control) mice (no LPS nebulization or drug treatment) was also included in the data analysis for comparison.

The nature of data set [4]: Blood glucose in mice with LPS-induced ALI (Example 17). It is filed as in vivo. Conditions: LPS-exposed mice, GLP-1 1250 μg/kg, cardiac puncture at conclusion. Here is the method:
Blood was obtained by cardiac puncture at the conclusion of the treatment. Median glucose concentration was 109, 183, 157, and 125 mg/dl, respectively.

Data set [5] is described as follows: Hydrophilicity/hydrophobicity balance of peptide. It is filed as physicochemical.
The nature of data set [6]: α-helicity of LP17 and control peptide in saline and SSM. The class given is physicochemical. Conditions: peptide 20 μM, SSM 5 mM. The protocol:
The α-helicity of LP17 (20 μM) in saline and in SSM (5 mM) was tested. A control peptide ([…] (SEQ ID NO:2)) was also tested in saline and in SSM at the same concentrations.

In another data set the test system is TREM-1. In words: Mouse model of ALI induced by aerosolized LPS, LP17 (Example 13). It is filed as in vivo, Wild-type mice. The conditions noted are these: 3 nmol s.c.; free peptide 48 and 24 h before LPS, nanomicellar 48 h before LPS. The protocol:
The efficacy of nanomicellar LP17 was tested in a mouse model of ALI induced by aerosolized LPS. Wild-type mice were treated with LP17 or control peptide and with LP17 or control peptide self-associated with nanomicelles (each, 3 nmol; a dose similar to that used in previous experiments). Free peptides were administered subcutaneously 48 and 24 h before administration of LPS. Peptides self-associated with nanomicelles were administered to the mice only 48 h before LPS nebulization. Mice were exposed to nebulized LPS in a dose of 1 mg/ml for 40 min as previously described (Sadikot et al., Am. J. Respir. Crit. Care Med. 164: 873-8, 2001.) Control mice were treated with nebulized endotoxin-free PBS. TREM-1 was induced in lungs of mice at 4 hours after treatment with LPS. After 4 h, a bronchoalveolar lavage was carried out to determine total cell count and neutrophil count. Lungs, liver, and spleen were harvested from the mice and frozen for RNA and protein extraction. Real-time RT-PCR was carried out to analyze fold induction in TREM-1 gene expression.

As for polymyxin B [PxB], the “critical micelle concentration (CMC) of PxB” value in data set [1] lay in the range of 1.0 to 2.3 mM. Further, the “particle size (diameter), INT-WT NICOMP” value in data set [1] (0.5 mM PxB, saline alone or with 1.0 mM DSPE-PEG2000, 24 hours) is reported as “approximately 520 nm”; in data set [1] (1.0 mM PxB, saline alone or with 1.0 mM DSPE-PEG2000, 2 hours), 240 nm; in data set [1] (2.3 mM PxB, saline alone or with 1 mM DSPE-PEG2000, 2 hours), “approximately 850 nm”; in data set [1] (6.9 mM PxB, saline alone or with 1 mM DSPE-PEG2000, 2 hours, listed as PxB sulfate) it was 640 nm; in data set [1] (6.9 mM PxB, saline alone or with 1 mM DSPE-PEG2000, 48 hours), 4 nm; in data set [1] (6.9 mM PxB, saline alone or with 1 mM DSPE-PEG2000, 48 hours, listed as PxB sulfate), 517 nm. Moreover, in data set [1] (1.0 mM PxB, 24 hours), the “particle size (diameter)” value is 520 nm. For the same substance, in data set [1] (2.3 mM PxB), the “large aggregates observed or not” value was “large aggregates were observed”. Besides, the “particle size distribution with scale 10-10,000 nm” value in data set [1] was “did not show peaks”; in data set [1] (listed as PxB sulfate), “no large aggregates”. In addition, the “average particle size (diameter)” value in data set [1] (6.9 mM PxB, 24 and 48 hour time points) amounted to 517 nm. Further, the “particle size (diameter), VOL-WT NICOMP” value in data set [1] (6.9 mM PxB, 48 hours) is on record as 4 nm. For the same substance, in data set [1] (all concentrations tested (0.5-6.9 mM), saline, 2-48 hours), the “aggregation of PxB” value is reported as “showed aggregation of the peptide; also recorded: formed aggregates”. Besides, the PxB aggregate formation result in data set [1] (range of concentrations tested, 10 μM to 23 mM) was “aggregates formed”. Also, the “molecules of PxB per micelle” value in data set [2] is on record as 3.6.

Turning to glucagon-like peptide I (7-36) [GLP-1], the fluorescence anisotropy in data set [3] stood at 0.045±0.012. For the same substance, the “Median blood glucose concentration” value in the data set with ALI mice was found to be 157 mg/dL. In addition, the Median glucose concentration in data set [4] amounted to 157 mg/dL. The same substance registered a hydrophilicity/hydrophobicity balance in data set [5] of approximately 0.987.

With “LQVTDSGLYRCVIYHPP (SEQ ID NO: 1) (listed as Mus musculus) [LP17]”, the “percent α-helicity in SSM compared to saline” value in data set [6] is given as “significantly greater”. In addition, the “expression of TREM-1 mRNA” value in the data set on TREM-1 is reported as “attenuated”.
